Experimental data as given in BindingDB's records for patent US20240158369 (Wigen Biomedicine Technology (Shanghai), 2024).

Target: Wee1-like protein kinase (Homo sapiens, UniProt P30291)
Test: In-Vitro Assay
Protocol: The inhibitory effect of the compounds on the enzyme activity of recombinant protein Wee-1 was determined by HTRF. The procedures are as follows: After DMSO or serially diluted compounds (up to 200 nM, 1:5 diluted) and recombinant proteins were co-incubated in a kinase buffer at 37° C. for 30 min before Fluorescein-PolyGAT and ATP were added, and the reaction was initiated by addition of a substrate. After incubation at room temperature for 90 min, an antibody and a detection solution were added, and after further incubation at room temperature for 60 min, fluorescence values were detected (excitation wavelength: 340 nm, emission wavelengths: 495 and 520 nm). The 520 nm/495 nm fluorescence intensity ratio value was calculated, and compared with that of the DMSO group, and then the inhibition percentages and IC50 values of the compounds were calculated.

Sequence of Wee1-like protein kinase (P30291 whole entry): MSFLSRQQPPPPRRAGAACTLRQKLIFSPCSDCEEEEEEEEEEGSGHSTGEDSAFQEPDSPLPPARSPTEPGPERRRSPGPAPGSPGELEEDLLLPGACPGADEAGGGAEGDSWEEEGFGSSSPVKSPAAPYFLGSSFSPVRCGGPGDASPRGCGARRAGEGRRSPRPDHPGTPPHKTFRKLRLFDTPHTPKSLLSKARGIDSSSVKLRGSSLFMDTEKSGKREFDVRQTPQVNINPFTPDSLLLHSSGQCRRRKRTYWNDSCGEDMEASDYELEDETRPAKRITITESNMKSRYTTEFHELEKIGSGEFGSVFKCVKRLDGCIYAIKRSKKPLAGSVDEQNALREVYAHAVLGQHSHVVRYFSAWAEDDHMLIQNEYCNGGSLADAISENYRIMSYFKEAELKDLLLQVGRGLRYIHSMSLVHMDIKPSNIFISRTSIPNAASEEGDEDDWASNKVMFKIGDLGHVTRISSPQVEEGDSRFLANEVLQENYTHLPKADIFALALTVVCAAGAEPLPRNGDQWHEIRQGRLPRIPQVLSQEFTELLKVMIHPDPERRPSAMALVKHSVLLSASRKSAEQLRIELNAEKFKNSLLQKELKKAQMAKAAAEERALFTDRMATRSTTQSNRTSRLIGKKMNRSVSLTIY

`CC(C)Cc1cc(Nc2ncc(C#N)c(Nc3cccc(N=S(C)(C)=O)n3)n2)cc2c1CCN(C)C2` [US20240158369, Compound 87] was tested, and the IC50 was < 10 nM.
